≈ marks a conversion by molar mass, not a printed value. Where two headings read alike, the source gives them in different places.
Assays:
[1] = Colloidal aggregation by nephelometry; format: physicochemical; conditions: 25 µM
Protocol: 3. Aggregation data (Figure S3)
Potential colloidal aggregation in biological assays was studied at five concentrations (5 µM, 10 µM, 15 µM,
25 µM, 50 µM). The original assay conditions were simulated, and the light scattering of potential aggregates
in the mixture was studied by nephelometric methods using Nepheloskan Ascent (Labsystems, Finland).
Aggregation of the blank and compounds fingolimod, 43, 45, 55, 62, 79 and 82 were measured as triplicates
from one independent experiment at 400 V and at room temperature.
formation at 50 µM. […] However, at 15
µM, 10 µM and 5 µM, the obtained values were close to those observed by blank, therefore indicating only
minor or no detectable aggregation.
Figure S3: Aggregation data for fingolimod and compounds 43, 45, 55, 62, 79, 82. RNU = relative nephelometric unit.
The data are shown as the mean ± SD and normalized to the blank.
(1 picture or pasted object on this page, not shown here)

[2] = system: S. aureus P2; experiment: Antibacterial activity, pre-exposure; format: cell-based, Staphylococcus aureus; conditions: for Average inhibition %, biofilms biomass / Average inhibition %, biofilms viability / Average inhibition %, planktonic cells turbidity / Average inhibition %, planktonic cells viability / inhibition at 5 µM / inhibition at 10 µM / inhibition at 15 µM / inhibition at 25 µM: S. aureus P2, pre-exposure, ± SD; for MIC / inhibition at 5 µM / inhibition at 10 µM / inhibition at 15 µM / inhibition at 25 µM: Staphylococcus aureus; for MIC: P2
In short: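 Compounds are diluted in DMSO and plated, then bacteria are added to test prevention of growth and biofilm formation. After 18 h at 37 °C with shaking, planktonic OD and resazurin fluorescence are measured. Washed biofilms receive resazurin (30 min S. aureus, 60 min A. baumannii, 90 min P. aeruginosa, 37 °C), then crystal violet.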

[3] = Cytotoxicity, resazurin staining assay; format: cell-based, human; conditions: human, 24 h incubation
Protocol: The cytotoxicity of the compounds was assessed on the three different human cell lines, A549, HEp-2, and HL-60, using the redox-based resazurin staining assay. The cells were seeded in clear 96-well plates at a density of 1 × 10^4 cells per well in a volume of 200 μL per well. The adherent cells were let to attach for 24 h before changing the media and adding the compounds (final concentration of 0.25% DMSO). HL-60 were counted and added to the plates at a density of 1 × 10^4 cells per well in a volume of 200 μL directly with the compounds. Untreated cells were used as negative controls, and cells treated with 1% TritonX-100 (Sigma-Aldrich, St. Louis, MO) were used as positive controls for cytotoxicity. The cells were incubated with the compounds for 24 h.
For the resazurin assay, the media was first removed, and the adherent cells were washed once with PBS. Then, 200 μL of 20 μM resazurin was added per well and cells were incubated for two more hours before the measurement of fluorescence, as mentioned earlier. For HL-60, 10 μL of 400 μM resazurin was added directly to the wells and the cells were incubated for an additional 4 h before the measurement of fluorescence.

[4] = Solubility in DMSO; format: physicochemical
[5] = 5 µM, read-out: Average inhibition %, biofilms biomass
[6] = 5 µM, read-out: Average inhibition %, planktonic cells turbidity
[7] = 10 µM, read-out: Average inhibition %, biofilms biomass
[8] = 10 µM, read-out: Average inhibition %, planktonic cells turbidity
[9] = 15 µM, read-out: Average inhibition %, biofilms biomass
[10] = 15 µM, read-out: Average inhibition %, planktonic cells turbidity
[11] = 25 µM, read-out: Average inhibition %, biofilms biomass
[12] = 25 µM, read-out: Average inhibition %, planktonic cells turbidity

Compound | Average inhibition %, biofilms viability ([2]; 5 µM) [%] | Average inhibition %, planktonic cells viability ([2]; 5 µM) [%] | Average inhibition %, biofilms viability ([2]; 10 µM) [%] | Average inhibition %, planktonic cells viability ([2]; 10 µM) [%] | Average inhibition %, biofilms viability ([2]; 15 µM) [%] | Average inhibition %, planktonic cells viability ([2]; 15 µM) [%] | Average inhibition %, biofilms viability ([2]; 25 µM) [%] | Average inhibition %, planktonic cells viability ([2]; 25 µM) [%] | CC50 at 24 h ([3]; A549 cells) [µM] | CC50 at 24 h ([3]; HEp-2 cells) [µM] | CC50 at 24 h ([3]; HL-60 cells) [µM] | MIC ([2]; pre-exposure, 18 h) [µM] | inhibition at 5 µM [2, 5] [%] | inhibition at 5 µM [2, 6] [%] | inhibition at 10 µM [2, 7] [%] | inhibition at 10 µM [2, 8] [%] | inhibition at 15 µM [2, 9] [%] | inhibition at 15 µM [2, 10] [%] | inhibition at 25 µM [2, 11] [%] | inhibition at 25 µM [2, 12] [%] | further results
2-Amino-2-(4-decylbenzyl)propane-1,3-diol [Compound 45] | 69.6 ± 37.8 | 70 ± 36.1 | 99.6 ± 0 | 99.8 ± 0 | 99.6 ± 0 | 99.7 ± 0.1 | 99.6 ± 0 | 99.6 ± 0.1 | – | – | – | – | – | – | – | – | – | – | – | – | Aggregation (nephelometry) [1]: potential aggregation; Average inhibition %, biofilms biomass ([2]; 5 µM): 74.6 ± 24.7%; Average inhibition %, planktonic cells turbidity ([2]; 5 µM): 74.4 ± 34.2%; Average inhibition %, biofilms biomass ([2]; 10 µM): 97.6 ± 0.3%; Average inhibition %, planktonic cells turbidity ([2]; 10 µM): 99.4 ± 0.1%; Average inhibition %, biofilms biomass ([2]; 15 µM): 96.9 ± 1.4%; Average inhibition %, planktonic cells turbidity ([2]; 15 µM): 99.1 ± 0.1%; Average inhibition %, biofilms biomass ([2]; 25 µM): 97.6 ± 0.3%; Average inhibition %, planktonic cells turbidity ([2]; 25 µM): 98.6 ± 0.1%; MIC S. aureus P2 ([2]; pre-exposure, 18 h): 5 to 10 µM
CCCCCCCCc1cccc(CCC(N)(CO)CO)c1 [Compound 43, 2-Amino-2-(3-octylphenethyl)propane-1,3-diol] | – | – | – | – | – | – | – | – | > 40 | > 40 | 23.4 ± 3.2 | – | – | – | – | – | – | – | – | – | Aggregation (nephelometry) [1]: potential aggregation
CCCCCCCCCCc1ccc(C(O)CC(N)(CO)CO)cc1 (centres unmarked) [Compound 55, 3-Amino-3-(hydroxymethyl)-1-(4-decylphenyl)butane-1,4-diol] | 32.1 ± 8.5 | 3.4 ± 5.8 | 99.4 ± 0.2 | 99.8 ± 0 | 99.6 ± 0 | 99.6 ± 0.1 | 99.6 ± 0 | 99.5 ± 0.1 | 35.3 ± 5.1 | 33.9 ± 1.2 | 7.4 ± 6.9 | 10 (≈ 3.52 µg/mL) | 23.6 ± 10.9 | 14 ± 3 | 96.5 ± 0.7 | 99.6 ± 0.1 | 95.1 ± 0.2 | 99.3 ± 0.1 | 91.6 ± 1.2 | 98.8 ± 0.2 | –
CCCCCCCCCCc1ccc(CCC(N)(CO)CO)nc1 [Compound 62, 2-Amino-2-[2-(5-decylpyridin-2-yl)ethyl]propane-1,3-diol] | – | – | – | – | – | – | – | – | 27.6 ± 6.4 | 30.9 ± 6.2 | 3.6 ± 0.4 | – | – | – | – | – | – | – | – | – | –
CCCCCCCCc1ccc2cc(CC(N)(CO)CO)ccc2c1 [Compound 79, 2-Amino-2-[(6-octylnaphthalen-2-yl)methyl]propane-1,3-diol] | 49.4 ± 34.5 | 45.3 ± 32.9 | 99.4 ± 0 | 99.6 ± 0 | 99.4 ± 0 | 99.6 ± 0.1 | 99.5 ± 0 | 99.6 ± 0.1 | > 40 | > 40 | 26.9 ± 1.6 | 10 (≈ 3.44 µg/mL) | 63.6 ± 23.6 | 45.4 ± 35.4 | 95.8 ± 2.2 | 99.5 | 97.3 ± 0.5 | 99.4 ± 0.1 | 96.4 ± 1.3 | 99.1 ± 0.2 | Aggregation (nephelometry) [1]: potential aggregation
CCCCCCCCc1ccc2nc(CCC(N)(CO)CO)ccc2c1 [Compound 80, 2-Amino-2-[2-(6-octylquinolin-2-yl)ethyl]propane-1,3-diol] | 45.2 ± 2.1 | 20.6 ± 21.6 | 99.5 ± 0.1 | 99.7 ± 0.2 | 99.5 ± 0 | 99.6 ± 0.1 | 99.5 ± 0 | 99.5 ± 0.1 | – | – | – | 10 (≈ 3.59 µg/mL) | 57.3 ± 10.2 | 3.3 ± 5.4 | 95.4 ± 2.9 | 99.6 ± 0.1 | 95.3 ± 0.8 | 99.3 | 90.6 ± 1 | 98.8 ± 0.2 | –
CCCCCCCCCCc1ccc2nc(CCC(N)(CO)CO)ccc2c1 [Compound 81, 2-Amino-2-[2-(6-decylquinolin-2-yl)ethyl]propane-1,3-diol] | 37.3 ± 3.3 | 42.9 ± 19.7 | 99.6 ± 0.1 | 99.6 ± 0.2 | 99.6 ± 0 | 99.6 ± 0.1 | 99.6 ± 0 | 99.6 ± 0.2 | – | – | – | – | 48.4 ± 15.7 | 0 | 96.6 ± 0.4 | 99.8 ± 0.1 | 94.5 ± 0.6 | 99.7 ± 0.1 | 89.1 ± 0.6 | 99.2 ± 0.2 | Solubility in dimethyl sulfoxide (DMSO) [4]: not fully soluble
CCCCCCCCc1ccc2ccc(CC(N)(CO)CO)nc2c1 [Compound 82, 2-Amino-2-[(7-octylquinolin-2-yl)methyl]propane-1,3-diol] | 23.7 ± 8.8 | 1 ± 1.8 | 99.5 ± 0 | 99.8 ± 0 | 99.8 ± 0 | 99.6 ± 0 | 99.7 ± 0.1 | 99.5 ± 0 | 27.5 ± 3 | 28.8 ± 1.8 | 6.5 ± 0.8 | 10 (≈ 3.44 µg/mL) | 39.9 ± 7 | 5 ± 2.2 | 97.6 ± 0.4 | 99.6 | 97.2 ± 0.8 | 99.7 | 96.4 ± 0.6 | 99.4 ± 0.1 | –
CCCCCCCCCCc1ccc2nc(CC(N)(CO)CO)ccc2c1 [Compound 83, 2-Amino-2-[(6-decylquinolin-2-yl)methyl]propane-1,3-diol] | – | – | – | – | – | – | – | – | – | – | – | 10 (≈ 3.73 µg/mL) | – | – | – | – | – | – | – | – | –
CCCCCCCCc1ccc(CCC(N)(CO)CO)cc1 [fingolimod, Fingolimod] | 18.2 ± 17 | 4.3 ± 7.4 | 55.4 ± 38 | 45 ± 45.6 | 99.8 ± 0 | 99.8 ± 0 | 99.8 ± 0.1 | 99.7 ± 0 | > 40 | > 40 | 36.1 ± 13.4 | 15 (≈ 4.61 µg/mL) | 34.9 ± 19 | 3.3 ± 5.8 | 64.3 ± 29.1 | 39.5 ± 45.1 | 98.3 ± 0.1 | 99.6 | 98 ± 0.4 | 99.3 ± 0.1 | Aggregation (nephelometry) [1]: potential aggregation; Solubility in dimethyl sulfoxide (DMSO) [4]: not fully soluble

Reference: publication PMC8296573, “Synthesis and Biological Evaluation of Fingolimod Derivatives as Antibacterial Agents” (ACS Omega, 2021)
